These results are taken from publication PMC4242082, “Mechanistic determinants of the directionality and energetics of active export by a heterodimeric ABC transporter” (Nature Communications, 2014).

In assay [1] the target is T1, rat TAP1-NBD (Rattus norvegicus, UniProt P36370, D645N/D651A).
T1 construct: monomer-homodimer equilibrium
T1 sequence (P36370 465-725 D645N/D651A): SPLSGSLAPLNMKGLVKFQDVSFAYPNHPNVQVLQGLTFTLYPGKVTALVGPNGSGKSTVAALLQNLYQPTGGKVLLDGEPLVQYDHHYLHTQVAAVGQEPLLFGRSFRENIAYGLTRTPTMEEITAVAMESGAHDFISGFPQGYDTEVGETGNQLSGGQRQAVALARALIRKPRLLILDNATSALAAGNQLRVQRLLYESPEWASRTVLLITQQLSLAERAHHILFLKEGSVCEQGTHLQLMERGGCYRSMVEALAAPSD
The assay can be described thus: X-ray crystal structure, […] Å. It counts as binding. The settings on record: crystals pH 8.0; canonical NBD dimer with two ATP.

Assay [2] addresses T2, rat TAP1-NBD (Rattus norvegicus, UniProt P36370, D651A).
T2 construct: monomer-homodimer equilibrium
T2 sequence (P36370 465-725 D651A): T1 sequence (P36370 465-725 D645N/D651A) with N181D
The assay can be described thus: fluorescence polarization competition with ATP-Bodipy. It counts as binding. The text has this:
(§1) fluorescence polarization competition with ATP-Bodipy on rat TAP1-NBD | affinities for ATP and ADP of isolated wt and D-loop (D651A) mutant rat TAP1-NBD
In general terms: Fluorescence polarisation rises when a labelled molecule tumbles more slowly, as on binding a larger partner.

In assay [3] the target is T3, rat TAP1-NBD (Rattus norvegicus, UniProt P36370).
T3 construct: monomer-homodimer equilibrium
T3 sequence (P36370 465-725): T1 sequence (P36370 465-725 D645N/D651A) with N181D, A187D
The description is as above. It counts as binding.
From the text: as §1

Assay [4] has as its target T4, TAP (TAP1/TAP2 complex; wt TAP) (Homo sapiens, UniProt Q03518+Q03519).
T4 construct: full-length heterodimer from Sf9 insect cells (baculovirus), purified and reconstituted in proteoliposomes, or in membranes
T4 sequence (Q03518 1-748): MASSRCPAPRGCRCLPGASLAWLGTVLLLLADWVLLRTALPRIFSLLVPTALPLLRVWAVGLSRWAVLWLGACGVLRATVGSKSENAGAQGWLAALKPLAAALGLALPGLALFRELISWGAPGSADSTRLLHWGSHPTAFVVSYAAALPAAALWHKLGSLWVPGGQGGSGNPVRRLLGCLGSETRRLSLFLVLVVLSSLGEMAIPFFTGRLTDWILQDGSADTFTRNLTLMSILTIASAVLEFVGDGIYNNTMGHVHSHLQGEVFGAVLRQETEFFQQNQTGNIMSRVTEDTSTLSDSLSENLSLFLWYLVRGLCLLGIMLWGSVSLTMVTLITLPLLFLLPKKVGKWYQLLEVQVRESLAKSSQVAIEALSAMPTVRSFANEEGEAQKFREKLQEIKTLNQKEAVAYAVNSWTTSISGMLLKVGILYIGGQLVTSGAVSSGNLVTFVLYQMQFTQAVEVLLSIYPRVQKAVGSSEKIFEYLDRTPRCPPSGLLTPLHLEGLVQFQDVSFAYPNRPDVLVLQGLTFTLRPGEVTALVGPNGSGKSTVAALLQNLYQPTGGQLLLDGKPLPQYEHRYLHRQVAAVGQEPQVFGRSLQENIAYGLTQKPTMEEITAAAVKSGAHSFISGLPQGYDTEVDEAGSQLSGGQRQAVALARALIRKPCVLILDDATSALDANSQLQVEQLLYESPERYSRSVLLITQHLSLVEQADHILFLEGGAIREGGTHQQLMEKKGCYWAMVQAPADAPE
T4 sequence (Q03519 1-686): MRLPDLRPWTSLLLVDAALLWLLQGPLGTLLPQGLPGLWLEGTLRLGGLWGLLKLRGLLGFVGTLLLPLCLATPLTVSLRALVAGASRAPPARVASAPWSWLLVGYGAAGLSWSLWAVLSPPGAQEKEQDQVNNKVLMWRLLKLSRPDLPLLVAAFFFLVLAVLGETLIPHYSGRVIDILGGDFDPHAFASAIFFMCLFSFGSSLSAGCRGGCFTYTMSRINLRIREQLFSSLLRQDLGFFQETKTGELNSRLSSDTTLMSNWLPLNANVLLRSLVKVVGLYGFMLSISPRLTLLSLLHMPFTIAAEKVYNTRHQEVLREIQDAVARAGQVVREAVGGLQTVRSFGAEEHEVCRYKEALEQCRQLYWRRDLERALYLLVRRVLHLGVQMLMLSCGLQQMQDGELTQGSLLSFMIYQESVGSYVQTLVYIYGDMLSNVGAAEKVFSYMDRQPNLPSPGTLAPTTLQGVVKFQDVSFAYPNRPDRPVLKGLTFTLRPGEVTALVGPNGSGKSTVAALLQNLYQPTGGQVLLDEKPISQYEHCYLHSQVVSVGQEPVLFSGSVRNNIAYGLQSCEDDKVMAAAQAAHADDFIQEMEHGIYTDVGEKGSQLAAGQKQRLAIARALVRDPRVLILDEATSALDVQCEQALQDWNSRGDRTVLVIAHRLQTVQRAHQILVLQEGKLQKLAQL
Briefly: biochemical. The settings on record: read-out: ATP binding IC50. Also noted: species or system Sf9; ATP-agarose competition binding assay with TAP-containing Sf9 membranes.

For assay [5], the target named is T4, TAP (TAP1/TAP2 complex; wt TAP). Briefly: ATP binding affinity. The following applies: type of constant not stated in main text.
The target of assay [6] is T3, rat TAP1-NBD. Briefly: biochemical. Also noted: fluorescence polarization competition of unlabelled nucleotide against 1 uM ATP-Bodipy, TAP1-NBD. How it is done: Nucleotide-stripped TAP1-NBD samples were re-concentrated to ~100 μM, and used to make a series of eight twofold dilutions in assay buffer (20 mM Tris, pH 8.0, 50 mM NaCl, 1 mM dithiothreitol) with 1 μM ATP-Bodipy (Invitrogen). A background control contained no protein. For competitive binding experiments, NBDs (25 μM final) were mixed with 1 μM ATP-Bodipy and a series of ten twofold dilutions of unlabelled nucleotide, with samples with no labelled nucleotide serving as background control. Fluorescence polarization was measured in FlexStation 3 with excitation at 488 nm. All samples were run two or three times in triplicates. Data were analysed with Origin (OriginLab Corp.). Binding affinities of unlabelled nucleotides (Kis) were obtained using Ki=IC50/([L]/Kd+1). To explore the molecular mechanism of antigen translocation, wt TAP and the D674A/wt complex were purified and functionally reconstituted in proteoliposomes. […] Furthermore, the Michaelis–Menten kinetics for peptide transport by wt TAP and D674A/wt are equal (Fig. 2c, Supplementary Fig. 2c and Supplementary Table 3), confirming that the affinity for ATP and peptides is not affected by the D-loop substitution.

Assay [7] concerns the target T5, TAP with tapasin-TAP2 fusion (Tsn-TAP) (Homo sapiens, UniProt Q03518+Q03519).
T5 construct: gene TAP1; purified heterodimer from Sf9 cells in digitonin; TAP2 fused N-terminally to tapasin (TAPBP) only to separate the subunits on the gel
T5 sequence (Q03518 1-748): T4 sequence (Q03518 1-748)
T5 sequence (Q03519 1-686): T4 sequence (Q03519 1-686)
T5 sequence (O15533 21-448 partner): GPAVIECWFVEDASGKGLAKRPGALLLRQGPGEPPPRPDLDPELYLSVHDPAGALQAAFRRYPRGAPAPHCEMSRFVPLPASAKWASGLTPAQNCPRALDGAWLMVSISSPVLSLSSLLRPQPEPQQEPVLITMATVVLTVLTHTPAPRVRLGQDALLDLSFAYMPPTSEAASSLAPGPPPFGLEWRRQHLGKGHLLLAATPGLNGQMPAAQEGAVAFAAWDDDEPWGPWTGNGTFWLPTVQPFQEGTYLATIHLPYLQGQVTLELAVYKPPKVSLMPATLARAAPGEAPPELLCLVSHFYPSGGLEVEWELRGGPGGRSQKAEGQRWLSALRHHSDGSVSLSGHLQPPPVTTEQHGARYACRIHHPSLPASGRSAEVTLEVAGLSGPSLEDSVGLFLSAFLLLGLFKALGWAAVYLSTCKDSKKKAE
The assay can be described thus: competition with 8-azido-[α-32P]ATP photo-crosslinking. It counts as binding. The settings on record: 200-fold excess, 1 mM MgCl2, pH 7.4, 4 °C.

The target of assay [8] is T3, rat TAP1-NBD. The assay can be described thus: fluorescence polarization, direct titration. It counts as binding. The following applies: pH 8.0, 20 mM Tris, 50 mM NaCl, 1 mM dithiothreitol; labelled compound. The text has this: fluorescence polarization, direct titration on rat TAP1-NBD | series of eight twofold dilutions in assay buffer

Numbering of substitutions follows the chain as printed. Where two headings read alike, the source gives them in different places.

The term Ki denotes a dissociation constant, usually derived from enzyme kinetics or from competition with a known ligand. Read a high Ki as a looser hold on the target. The term IC50 denotes the concentration that gives 50% inhibition. As for `Nc1ncnc2c1ncn2[C@@H]1O[C@H](COP(=O)(O)OP(=O)(O)OP(=O)(O)O)[C@@H](O)[C@H]1O` [ATP], at rat TAP1-NBD [1], the “X-ray crystal structure, 2.65 Å” value is “the two ATPs and their binding sites are essentially unaffected by this structural re-organization”. The Ki at rat TAP1-NBD [2] was 148 ± 9 µM; on rat TAP1-NBD [3], 119 ± 13 µM. For the same compound, the IC50 was 10 ± 1 µM in assay [4] and 139 ± 30 µM at rat TAP1-NBD [6] (read-out: IC50 (µM) ATP). Moreover, the affinity entry in assay [5] was “all mutants displayed similar affinity for peptides and ATP as compared with wt TAP”.
For the compound `Nc1ncnc2c1ncn2[C@@H]1O[C@H](COP(=O)(O)OP(=O)(O)O)[C@@H](O)[C@H]1O` [ADP], the Ki was found to be 59 ± 3 µM at rat TAP1-NBD [2] and 59 ± 2 µM on rat TAP1-NBD [3]. The “competition with 8-azido-[α-32P]ATP photo-crosslinking” value in assay [7] was “wt and D674A/wt TAP showed the same binding properties for ATP, ADP (Fig. 2b)”. Also, the half-maximal inhibitory concentration (IC50) on rat TAP1-NBD [6] (read-out: IC50 (µM) ADP) stood at 69 ± 14 µM.
For orientation: Kd means the free concentration of one partner at which half of the binding sites on the other are occupied at equilibrium, for simple one-to-one binding. A high value points to weaker binding. ATP-Bodipy came in with a dissociation constant (Kd) at rat TAP1-NBD [8] of 6.1 ± 1.7 µM.
